{"source": "ChEMBL document CHEMBL1201862", "about": "“PubChem BioAssay data set” (2004)", "key": {"[1]": {"molecular_target": "26S proteasome non-ATPase regulatory subunit 14 (Homo sapiens, UniProt O00487)", "sequence (O00487 whole entry)": "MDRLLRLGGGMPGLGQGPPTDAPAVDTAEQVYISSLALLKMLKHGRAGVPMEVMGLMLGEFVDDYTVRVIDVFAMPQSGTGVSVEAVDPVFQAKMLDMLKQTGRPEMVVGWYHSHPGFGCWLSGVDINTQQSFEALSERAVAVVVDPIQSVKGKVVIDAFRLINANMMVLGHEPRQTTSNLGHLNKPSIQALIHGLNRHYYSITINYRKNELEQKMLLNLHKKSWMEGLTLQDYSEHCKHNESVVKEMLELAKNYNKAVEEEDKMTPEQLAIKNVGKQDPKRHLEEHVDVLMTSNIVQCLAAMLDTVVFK", "assay": "inhibition of proteasome subunit RPN11 – biochemical, fluorescence polarization, uHTS hits, confirmation (AID 602368)", "assay_type": "functional"}, "[2]": {"assay": "Luminescence Cell-Based Dose Retest to Confirm Inhibitors of Cancer Stem Cells. [Related pubchem assays (depositor defined):AID2717, AID2721]", "assay_type": "functional", "details": "Homo sapiens"}, "INS1": {"tested_on": "INS1", "assay": "INS-1E survival protection against cytokine death – cell-based, luminescence, retest, dose response (AID 449756);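 note: cell death triggered by IL-1 beta plus TNF-alpha plus IFN-gamma mixture; protective hits raise ATP signal compared with cytokine alone wells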", "assay_type": "functional", "details": "Rattus norvegicus"}, "[3]": {"molecular_target": "Arf-GAP with SH3 domain, ANK repeat and PH domain-containing protein 1 (Homo sapiens, UniProt Q9ULH1)", "sequence (Q9ULH1 whole entry, the tested form may be a part)": "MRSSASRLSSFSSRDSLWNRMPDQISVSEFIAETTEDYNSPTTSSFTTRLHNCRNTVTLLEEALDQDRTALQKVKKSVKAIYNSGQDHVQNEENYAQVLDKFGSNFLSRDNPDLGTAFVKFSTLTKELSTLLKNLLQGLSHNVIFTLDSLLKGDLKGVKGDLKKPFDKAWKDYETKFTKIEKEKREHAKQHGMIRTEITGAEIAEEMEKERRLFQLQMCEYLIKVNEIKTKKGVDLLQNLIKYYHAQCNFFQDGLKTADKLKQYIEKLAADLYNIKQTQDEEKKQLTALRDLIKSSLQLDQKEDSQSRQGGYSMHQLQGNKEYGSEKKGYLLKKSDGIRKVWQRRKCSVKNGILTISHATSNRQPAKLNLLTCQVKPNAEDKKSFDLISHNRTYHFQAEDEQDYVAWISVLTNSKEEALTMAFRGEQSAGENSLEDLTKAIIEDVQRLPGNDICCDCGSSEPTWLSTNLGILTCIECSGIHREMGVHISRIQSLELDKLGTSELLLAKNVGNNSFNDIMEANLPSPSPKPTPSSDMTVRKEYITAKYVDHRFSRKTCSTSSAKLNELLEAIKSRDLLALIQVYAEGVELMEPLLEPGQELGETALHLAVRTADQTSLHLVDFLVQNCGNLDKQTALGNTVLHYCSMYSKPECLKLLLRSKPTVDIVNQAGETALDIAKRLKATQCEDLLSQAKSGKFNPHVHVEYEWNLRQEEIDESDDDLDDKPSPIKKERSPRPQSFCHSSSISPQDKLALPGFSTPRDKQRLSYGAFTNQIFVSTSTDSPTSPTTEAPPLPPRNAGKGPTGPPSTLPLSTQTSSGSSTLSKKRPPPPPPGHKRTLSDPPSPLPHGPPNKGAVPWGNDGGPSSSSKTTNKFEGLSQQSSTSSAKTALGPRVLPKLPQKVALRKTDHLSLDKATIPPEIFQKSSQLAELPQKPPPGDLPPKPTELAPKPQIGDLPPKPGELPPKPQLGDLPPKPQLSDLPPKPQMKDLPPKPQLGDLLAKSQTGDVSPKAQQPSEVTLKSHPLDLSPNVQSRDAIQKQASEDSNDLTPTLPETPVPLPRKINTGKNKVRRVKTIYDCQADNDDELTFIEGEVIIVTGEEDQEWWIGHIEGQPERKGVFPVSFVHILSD", "assay_type": "functional"}, "Prothrombin": {"molecular_target": "Prothrombin (Bos taurus, UniProt P00735)", "assay": "thrombin protease inhibitors – biochemical, fluorescence polarization, uHTS hits, dose response (AID 602369)", "assay_type": "functional"}, "[4]": {"molecular_target": "72 kDa type IV collagenase (Homo sapiens, UniProt P08253)", "sequence (P08253 whole entry)": "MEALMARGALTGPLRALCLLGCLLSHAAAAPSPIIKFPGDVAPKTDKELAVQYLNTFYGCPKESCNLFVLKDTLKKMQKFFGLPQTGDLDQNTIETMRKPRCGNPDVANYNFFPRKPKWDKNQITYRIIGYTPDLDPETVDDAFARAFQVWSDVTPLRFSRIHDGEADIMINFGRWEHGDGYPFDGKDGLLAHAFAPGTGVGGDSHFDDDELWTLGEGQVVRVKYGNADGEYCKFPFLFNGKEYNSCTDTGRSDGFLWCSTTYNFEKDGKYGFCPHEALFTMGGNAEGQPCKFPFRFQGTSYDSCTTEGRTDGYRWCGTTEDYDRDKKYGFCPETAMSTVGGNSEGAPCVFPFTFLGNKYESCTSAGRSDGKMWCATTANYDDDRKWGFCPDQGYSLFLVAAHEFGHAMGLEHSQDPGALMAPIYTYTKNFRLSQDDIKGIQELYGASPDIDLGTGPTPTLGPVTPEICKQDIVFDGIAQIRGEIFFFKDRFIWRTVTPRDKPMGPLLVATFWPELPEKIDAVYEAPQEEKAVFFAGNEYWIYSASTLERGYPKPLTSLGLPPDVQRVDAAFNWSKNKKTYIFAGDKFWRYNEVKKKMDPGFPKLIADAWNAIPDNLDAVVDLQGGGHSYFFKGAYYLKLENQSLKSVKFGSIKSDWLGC", "assay": "Dose Response validation of uHTS RPN11 inhibitor hits using a MMP-2 Fluorescence assay.", "assay_type": "functional"}, "[5]": {"assay": "viability loss in HEK293T cells – cell-based, cherry-picks, cytotoxicity control for HIV Vif inhibitor project, dose response (AID 652208)", "assay_type": "functional"}, "[6]": {"assay": "HGIII-sPLA2 enzyme inhibition potency – biochemical, QFRET, IC50, dose response (AID 743457);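 note: green fluorescence rise as the enzyme cleaves BODIPY PC-A2 in liposomes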"}, "[7]": {"assay": "viability loss in HeLa cells – cytotoxicity control for MgcRacGAP inhibitor project, dose response (AID 624300)", "assay_type": "functional"}, "H9c2": {"tested_on": "H9c2", "assay": "cells", "assay_type": "functional, cell-based", "details": "Rattus norvegicus, H9c2, Myocardium"}, "[8]": {"assay": "Counterscreen for inhibitors of Trypanosoma brucei methionyl tRNA synthetase (MetRS): Luminescence-based cell-based high throughput dose response assay to identify compounds that are cytotoxic to Jurkat human T lymphocyte cells.", "assay_type": "functional"}, "[9]": {"assay": "nonselective StAR promoter luciferase inhibitors – cell-based, luminescence, luciferase reporter, counter-screen for LRH-1 inverse agonist project, dose response (AID 651969)", "assay_type": "functional"}, "Steroidogenic factor 1": {"molecular_target": "Steroidogenic factor 1 (Homo sapiens, UniProt Q13285)", "sequence (Q13285 whole entry)": "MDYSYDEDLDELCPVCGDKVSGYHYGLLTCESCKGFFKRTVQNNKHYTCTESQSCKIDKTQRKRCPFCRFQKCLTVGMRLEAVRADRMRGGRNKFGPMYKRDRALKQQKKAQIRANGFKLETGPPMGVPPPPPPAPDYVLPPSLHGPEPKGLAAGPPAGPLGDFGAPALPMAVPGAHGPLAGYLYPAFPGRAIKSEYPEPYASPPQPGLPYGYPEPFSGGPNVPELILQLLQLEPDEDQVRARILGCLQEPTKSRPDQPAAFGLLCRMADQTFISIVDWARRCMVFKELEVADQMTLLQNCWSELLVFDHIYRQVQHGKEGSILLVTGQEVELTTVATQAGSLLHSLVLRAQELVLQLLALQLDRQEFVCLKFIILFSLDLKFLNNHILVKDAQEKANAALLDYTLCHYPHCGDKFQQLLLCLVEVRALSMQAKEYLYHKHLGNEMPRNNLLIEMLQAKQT", "assay": "Counterscreen for inverse agonists of the liver receptor homolog-1 (LRH-1; NR5A2): Luminescence-based cell-based high throughput dose response assay to identify inverse agonists of the Steroidogenic Factor 1 Nuclear Receptor (SF1; NR5A1).", "assay_type": "functional"}, "[10]": {"molecular_target": "Nuclear receptor subfamily 5 group A member 2 (Homo sapiens, UniProt O00482)", "sequence (O00482 whole entry)": "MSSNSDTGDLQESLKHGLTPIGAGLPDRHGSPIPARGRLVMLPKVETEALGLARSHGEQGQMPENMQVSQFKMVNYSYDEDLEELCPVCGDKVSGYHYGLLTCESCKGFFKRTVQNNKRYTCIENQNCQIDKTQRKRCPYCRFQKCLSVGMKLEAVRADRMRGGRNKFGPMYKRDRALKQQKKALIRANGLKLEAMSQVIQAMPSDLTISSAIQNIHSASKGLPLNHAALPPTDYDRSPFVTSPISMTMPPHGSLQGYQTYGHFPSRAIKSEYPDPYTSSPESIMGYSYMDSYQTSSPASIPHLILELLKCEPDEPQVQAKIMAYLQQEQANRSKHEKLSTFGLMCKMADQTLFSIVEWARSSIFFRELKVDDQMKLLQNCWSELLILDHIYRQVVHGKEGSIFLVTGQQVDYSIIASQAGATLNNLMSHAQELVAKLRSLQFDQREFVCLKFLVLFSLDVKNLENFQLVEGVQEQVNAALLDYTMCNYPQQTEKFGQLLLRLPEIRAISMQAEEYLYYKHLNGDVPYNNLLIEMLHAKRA", "assay_type": "functional, cell-based"}, "Interleukin-8": {"molecular_target": "Interleukin-8 (Homo sapiens, UniProt P10145)", "sequence (P10145 whole entry)": "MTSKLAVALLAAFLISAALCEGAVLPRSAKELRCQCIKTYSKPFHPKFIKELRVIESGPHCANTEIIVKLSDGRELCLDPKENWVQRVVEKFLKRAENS", "assay": "Dose Response confirmation of uHTS small molecule hits for cystic fibrosis induced NFkb Inhibitors in a PAF-induced IL8 counterscreen.", "assay_type": "functional", "details": "read-out: IC50_Mean"}}, "note": "Calls of active or inactive are those of the source."}
{"smiles": "O=C(N/N=C/c1cc(Cl)ccc1O)c1ccc(Br)cc1", "values": [{"measurement": "IC50", "setting": "[1]", "value": "12.7 µM (active)"}, {"measurement": "AC50", "setting": "[2]", "value": "1.09 µM (active)"}, {"measurement": "AC50", "setting": "INS1", "value": "773 nM (active)"}, {"measurement": "IC50", "setting": "[3]", "value": "21.3 µM (inactive)"}, {"measurement": "IC50", "setting": "Prothrombin", "value": "63.2 µM (active)"}, {"measurement": "IC50", "setting": "[4]", "value": "10.3 µM (active)"}]}
{"smiles": "CC(C)n1nc(C(=O)Nc2ccc(-n3cnnn3)cc2)c2ccccc2c1=O", "values": [{"measurement": "AC50", "setting": "[5]", "value": "> 52 µM (inactive)"}]}
{"smiles": "COc1ccccc1NC(=O)NNC(=O)c1ccc2ccccc2c1O", "values": [{"measurement": "IC50", "setting": "[6]", "value": "> 122 µM (inactive)"}, {"measurement": "CC50", "setting": "[7]", "value": "100 µM (active)"}]}
{"smiles": "Cc1cc(Cl)ccc1OCCCC(=O)NNC(=O)c1ccccc1O", "values": [{"measurement": "IC50", "setting": "H9c2", "value": "> 79 µM (inactive)"}, {"measurement": "IC50", "setting": "[8]", "value": "83.3 µM (inactive)"}]}
{"smiles": "Cc1ccc(NC(=O)CSc2nnc([C@@H]3CCCN3C(=O)OC(C)(C)C)o2)c(C)c1", "values": [{"measurement": "IC50", "setting": "[9]", "value": "35.9 µM (inactive)"}, {"measurement": "IC50", "setting": "Steroidogenic factor 1", "value": "0.932 µM (active)"}, {"measurement": "IC50", "setting": "[10]", "value": "1.33 µM (active)"}]}
{"smiles": "CCOc1cccc(C(=O)Nc2ccc3oc(Cc4ccc(Cl)cc4)nc3c2)c1", "values": [{"measurement": "AC50", "setting": "[5]", "value": "> 52 µM (inactive)"}]}
{"smiles": "COc1ccc(NC(=O)CSc2ccc3c(c2)OCCO3)cc1", "values": [{"measurement": "IC50", "setting": "[9]", "value": "35.9 µM (inactive)"}, {"measurement": "IC50", "setting": "Steroidogenic factor 1", "value": "5.7 µM (active)"}, {"measurement": "IC50", "setting": "[10]", "value": "35.9 µM (inactive)"}]}
{"smiles": "CC(=O)Oc1ccccc1C(=O)Oc1ccc(/C=N/n2cnnc2)cc1", "values": [{"measurement": "IC50", "setting": "Interleukin-8", "value": "4.67 µM (active)"}]}
